In PubChem BioAssay AID256 (DTP/NCI, 2004) one finds T/C data, which are given here for eight compounds.

For the assay, the system named is CD2F1 mice, L1210 leukemia ip, survival T/C. In words: NCI In Vivo Anticancer Drug Screen. Data for tumor model L1210 Leukemia (intraperitoneal) in CD2F1 (CDF1) mice. The note with it: endpoint: mean survival time, higher = longer survival. Summed up:
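Implant tumor; dose compound or vehicle; measure endpoint in both groups; report treated divided by control.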

“And” between values parts separate entries of the source, which are not always exact repeats. Identical values can stand only once. Toxic doses and inconclusive results are not listed.

Take `C1CSC(CC2SCCCS2)SC1`: the T/C was 97 % of control (dose: 50.0 mg/kg/injection, schedule: Q01DX001 (ip), vehicle: saline with Tween-80); 94 % of control (dose: 100.0 mg/kg/injection, schedule: Q01DX001 (ip), vehicle: saline with Tween-80); 96 % of control (dose: 200.0 mg/kg/injection, schedule: Q01DX001 (ip), vehicle: saline with Tween-80).
As for `COc1cc2cc3cc4cc(OC)c(OC)cc4c(C)[n+]3cc2cc1OC` (tested in a mixture with another compound), the T/C (dose: 12.5 mg/kg/injection, schedule: Q01DX009 (ip), vehicle: suspension in saline) is 109 % of control; the T/C (dose: 25.0 mg/kg/injection, schedule: Q01DX009 (ip), vehicle: suspension in saline) is 110 % of control; the T/C (dose: 50.0 mg/kg/injection, schedule: Q01DX009 (ip), vehicle: suspension in saline) is 114 % of control; the T/C (dose: 100.0 mg/kg/injection, schedule: Q01DX009 (ip), vehicle: suspension in saline) is 107 % of control; the T/C (dose: 200.0 mg/kg/injection, schedule: Q01DX009 (ip), vehicle: suspension in saline) is 110 % of control.
Turning to `CCOC(=O)Nc1cnc2nc[nH]c2c1N(C)C`, the T/C is, setting by setting: (dose: 100.0 mg/kg/injection, schedule: Q01DX001 (ip), vehicle: carboxymethylcellulose (CMC)) 104 % of control; (dose: 200.0 mg/kg/injection, schedule: Q01DX001 (ip), vehicle: carboxymethylcellulose (CMC)) 104 % of control; (dose: 400.0 mg/kg/injection, schedule: Q01DX001 (ip), vehicle: carboxymethylcellulose (CMC)) 124 % of control.
With `Nc1ncn(C2OC(COC(=O)c3ccccc3)C(OC(=O)c3ccccc3)C2OC(=O)c2ccccc2)c(=O)n1` (configuration not stated), the T/C reads like this: (dose: 1.56 mg/kg/injection, schedule: Q01DX009 (ip), vehicle: saline) 108 % of control; (dose: 6.25 mg/kg/injection, schedule: Q01DX009 (ip), vehicle: saline) 164 % of control and 170 % of control; (dose: 12.5 mg/kg/injection, schedule: Q01DX009 (ip), vehicle: saline) 205 % of control and 227 % of control; (dose: 25.0 mg/kg/injection, schedule: Q01DX009 (ip), vehicle: saline) 115 % of control and 124 % of control; (dose: 50.0 mg/kg/injection, schedule: Q01DX009 (ip), vehicle: saline) 91 % of control and 93 % of control.
With `Nc1nc(=S)c2ncn(C3OC(CO)C(O)C3O)c2[nH]1` (configuration not stated), the T/C was 154 % of control (dose: 1.0 mg/kg/injection, schedule: Q01DX005 (ip), vehicle: saline + alcohol); 152 % of control (dose: 2.0 mg/kg/injection, schedule: Q01DX005 (ip), vehicle: saline + alcohol); 150 % of control (dose: 4.0 mg/kg/injection, schedule: Q01DX005 (ip), vehicle: saline + alcohol); 151 % of control (dose: 10.0 mg/kg/injection, schedule: Q03DX003 (ip), vehicle: saline); 163 % of control (dose: 10.0 mg/kg/injection, schedule: Q04DX003 (ip), vehicle: saline); 107 % of control (dose: 20.0 mg/kg/injection, schedule: Q01DX007 (ip), vehicle: saline). Further, the T/C is 151 % of control (dose: 20.0 mg/kg/injection, schedule: Q03DX003 (ip), vehicle: saline); 150 % of control (dose: 20.0 mg/kg/injection, schedule: Q04DX003 (ip), vehicle: saline); 113 % of control (dose: 37.5 mg/kg/injection, schedule: Q01DX009 (ip), vehicle: saline); 95 % of control (dose: 40.0 mg/kg/injection, schedule: Q01DX009 (ip), vehicle: saline); 164 % of control (dose: 40.0 mg/kg/injection, schedule: Q04DX003 (ip), vehicle: saline); 89 % of control (dose: 75.0 mg/kg/injection, schedule: Q01DX009 (ip), vehicle: saline). Further, the T/C (dose: 178.0 mg/kg/injection, schedule: Q01DX001 (ip), vehicle: saline) was 152 % of control; the T/C (dose: 267.0 mg/kg/injection, schedule: Q01DX001 (ip), vehicle: saline) was 152 % of control; the T/C (dose: 400.0 mg/kg/injection, schedule: Q01DX001 (ip), vehicle: saline) was 159 % of control.
As to `O=S(=O)(O)O.[NH-]C1CCCCCC1[NH-].[Pt+2]` (configuration not stated), the T/C reads like this: (dose: 1.56 mg/kg/injection, schedule: Q04DX003 (ip), vehicle: dextrose) 205 % of control; (dose: 3.13 mg/kg/injection, schedule: Q01DX001 (ip), vehicle: dextrose) 200 % of control and 204 % of control; (dose: 3.13 mg/kg/injection, schedule: Q04DX003 (ip), vehicle: dextrose) 188 % of control and 241 % of control and 103 % of control; (dose: 6.25 mg/kg/injection, schedule: Q01DX001 (ip), vehicle: dextrose) 170 % of control and 189 % of control; (dose: 12.5 mg/kg/injection, schedule: Q01DX001 (ip), vehicle: dextrose) 86 % of control; (dose: 12.5 mg/kg/injection, schedule: Q04DX003 (ip), vehicle: dextrose) 97 % of control.
As for `CN(C)CC(=O)c1ccc(O)c(O)c1`, the T/C was 95 % of control (dose: 16.0 mg/kg/injection, schedule: Q03HX008 (ip), vehicle: saline); 97 % of control (dose: 16.0 mg/kg/injection, schedule: Q03HX016 (ip), vehicle: saline); 96 % of control (dose: 32.0 mg/kg/injection, schedule: Q03HX008 (ip), vehicle: saline); 106 % of control (dose: 32.0 mg/kg/injection, schedule: Q03HX016 (ip), vehicle: saline); 86 % of control (dose: 64.0 mg/kg/injection, schedule: Q01DX009 (sc), vehicle: saline); 110 % of control (dose: 64.0 mg/kg/injection, schedule: Q03HX008 (ip), vehicle: saline). In addition, the T/C is, setting by setting: (dose: 64.0 mg/kg/injection, schedule: Q03HX016 (ip), vehicle: saline) 111 % of control; (dose: 64.0 mg/kg/injection, schedule: Q04DX003 (ip), vehicle: saline) 101 % of control; (dose: 128.0 mg/kg/injection, schedule: Q01DX001 (oral), vehicle: saline) 98 % of control; (dose: 128.0 mg/kg/injection, schedule: Q01DX001 (sc), vehicle: saline) 98 % of control; (dose: 128.0 mg/kg/injection, schedule: Q01DX009 (oral), vehicle: saline) 93 % of control; (dose: 128.0 mg/kg/injection, schedule: Q01DX009 (sc), vehicle: saline) 86 % of control. Further, the T/C is, setting by setting: (dose: 128.0 mg/kg/injection, schedule: Q03HX008 (ip), vehicle: saline) 118 % of control; (dose: 128.0 mg/kg/injection, schedule: Q03HX016 (ip), vehicle: saline) 122 % of control; (dose: 128.0 mg/kg/injection, schedule: Q04DX003 (ip), vehicle: saline) 107 % of control; (dose: 128.0 mg/kg/injection, schedule: Q08DX002 (ip), vehicle: saline) 105 % of control; (dose: 256.0 mg/kg/injection, schedule: Q01DX001 (oral), vehicle: saline) 101 % of control; (dose: 256.0 mg/kg/injection, schedule: Q01DX001 (sc), vehicle: saline) 96 % of control. Also, the T/C (dose: 256.0 mg/kg/injection, schedule: Q01DX009 (oral), vehicle: saline) was 92 % of control; the T/C (dose: 256.0 mg/kg/injection, schedule: Q01DX009 (sc), vehicle: saline) was 86 % of control; the T/C (dose: 256.0 mg/kg/injection, schedule: Q04DX003 (ip), vehicle: saline) is 107 % of control; the T/C (dose: 256.0 mg/kg/injection, schedule: Q08DX002 (ip), vehicle: saline) was 103 % of control; the T/C (dose: 512.0 mg/kg/injection, schedule: Q01DX001 (oral), vehicle: saline) is 98 % of control; the T/C (dose: 512.0 mg/kg/injection, schedule: Q01DX001 (sc), vehicle: saline) is 95 % of control. In addition, the T/C is, setting by setting: (dose: 512.0 mg/kg/injection, schedule: Q01DX009 (oral), vehicle: saline) 91 % of control; (dose: 512.0 mg/kg/injection, schedule: Q01DX009 (sc), vehicle: saline) 86 % of control; (dose: 512.0 mg/kg/injection, schedule: Q04DX003 (ip), vehicle: saline) 107 % of control; (dose: 512.0 mg/kg/injection, schedule: Q08DX002 (ip), vehicle: saline) 105 % of control; (dose: 1024.0 mg/kg/injection, schedule: Q01DX001 (oral), vehicle: saline) 96 % of control; (dose: 1024.0 mg/kg/injection, schedule: Q01DX001 (sc), vehicle: saline) 107 % of control. In addition, the T/C by setting is: (dose: 1024.0 mg/kg/injection, schedule: Q01DX009 (oral), vehicle: saline) 93 % of control; (dose: 1024.0 mg/kg/injection, schedule: Q08DX002 (ip), vehicle: saline) 110 % of control.
Regarding `CC(=O)Nc1cccc(C(C)=O)c1[N+](=O)[O-]`, the T/C runs as follows: (dose: 100.0 mg/kg/injection, schedule: Q01DX009 (ip), vehicle: saline with Tween-80) 102 % of control; (dose: 200.0 mg/kg/injection, schedule: Q01DX009 (ip), vehicle: saline with Tween-80) 97 % of control; (dose: 400.0 mg/kg/injection, schedule: Q01DX009 (ip), vehicle: saline with Tween-80) 93 % of control.
